How the values were obtained:
human V1a receptor = biological target: T1, human V1a receptor (Homo sapiens, UniProt P37288); experiment: Cellular in vitro assay for determining vasopressin receptor activity, V1a receptor cell line (CHO, aequorin luminescence); format: cell-based; details: for IC50: CHO cell line transfected with human V1a receptor, [Arg]-vasopressin at EC50 concentration, read-out: IC50 hV1a; for ratio IC50 hV2/hV1a: selectivity ratio IC50 hV2 / IC50 hV1a
T1 construct: expressed in transfected cells; host or cells: CHO K1 (ATCC), also stably transfected with a modified aequorin
How it was run: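 IC50 from inhibition of [Arg]-vasopressin (EC50 concentration)-evoked aequorin luminescence in CHO K1 cells, with 10-min compound pretreatment.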

human V2 receptor = biological target: T2, human V2 receptor (Homo sapiens, UniProt P30518); experiment: Cellular in vitro assay for determining vasopressin receptor activity, V2 receptor cell line (CHO, CRE-luciferase); format: cell-based; details: CHO cell line transfected with human V2 receptor; [Arg8]-vasopressin at EC50 concentration; read-out: IC50 hV2
T2 construct: expressed in transfected cells; host or cells: CHO K1 (ATCC) expressing firefly luciferase under a CRE-responsive promoter
T2 sequence (P30518 whole entry): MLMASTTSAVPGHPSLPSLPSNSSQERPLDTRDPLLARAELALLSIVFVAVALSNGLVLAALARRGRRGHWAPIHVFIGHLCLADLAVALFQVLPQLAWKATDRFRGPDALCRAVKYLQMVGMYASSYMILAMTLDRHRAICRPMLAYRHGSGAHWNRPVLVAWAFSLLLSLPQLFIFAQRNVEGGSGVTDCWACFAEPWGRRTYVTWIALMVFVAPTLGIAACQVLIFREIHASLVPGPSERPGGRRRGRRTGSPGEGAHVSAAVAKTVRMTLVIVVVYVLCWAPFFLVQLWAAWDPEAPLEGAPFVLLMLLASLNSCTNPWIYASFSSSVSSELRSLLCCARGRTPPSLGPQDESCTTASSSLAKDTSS

T1 sequence (P37288 whole entry): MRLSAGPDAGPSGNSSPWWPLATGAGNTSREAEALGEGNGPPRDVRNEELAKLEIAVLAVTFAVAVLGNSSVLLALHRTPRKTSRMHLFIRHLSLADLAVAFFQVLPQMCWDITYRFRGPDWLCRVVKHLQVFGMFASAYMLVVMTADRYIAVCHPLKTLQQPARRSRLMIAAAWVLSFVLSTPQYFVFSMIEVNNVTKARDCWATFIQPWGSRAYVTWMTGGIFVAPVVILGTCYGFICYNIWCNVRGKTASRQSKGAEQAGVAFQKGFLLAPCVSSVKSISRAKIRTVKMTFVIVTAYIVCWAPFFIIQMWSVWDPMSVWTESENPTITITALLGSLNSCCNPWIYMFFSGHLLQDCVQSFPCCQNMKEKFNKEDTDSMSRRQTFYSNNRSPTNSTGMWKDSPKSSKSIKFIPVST

SMILES | IC50 (human V1a receptor) [nM] | ratio IC50 hV2/hV1a (human V1a receptor) | IC50 (human V2 receptor) [nM]
O=C1CN(c2nc(Cn3nc(-c4ccc(Cl)cc4)n(C[C@H](O)C(F)(F)F)c3=O)nn2-c2cccnc2C(=O)NCC(F)(F)F)CCN1 [Example 509, 3-[3-({3-(4-Chlorophenyl)-5-oxo-4-[(2S)-3,3,3-trifluoro-2-hydroxypropyl]-4,5-dihydro-1H-1,2,4-triazol-1-yl}methyl)-5-(3-oxopiperazin-1-yl)-1H-1,2,4-triazol-1-yl]-N-(2,2,2-trifluoroethyl)pyridine-2-carboxamide] | 2650 | 12.1 | 32000
O=C1CN(C(=O)c2nc(Cn3nc(-c4ccc(Cl)cc4)n(C[C@H](O)C(F)(F)F)c3=O)nn2-c2cnccc2C(=O)NCC(F)(F)F)CCN1 [Example 510, 3-{3-({3-(4-Chlorophenyl)-5-oxo-4-[(2S)-3,3,3-trifluoro-2-hydroxypropyl]-4,5-dihydro-1H-1,2,4-triazol-1-yl}methyl)-5-[(3-oxopiperazin-1-yl)carbonyl]-1H-1,2,4-triazol-1-yl}-N-(2,2,2-trifluoroethyl)pyridine-4-carboxamide] | 9950 | 0.9 | 8900
O=C1CN(C(=O)c2nc(Cn3nc(-c4ccc(Cl)cc4)n(C[C@H](O)C(F)(F)F)c3=O)nn2-c2cnccc2C(=O)NCCC(F)(F)F)CCN1 [Example 511, 3-{3-({3-(4-Chlorophenyl)-5-oxo-4-[(2S)-3,3,3-trifluoro-2-hydroxypropyl]-4,5-dihydro-1H-1,2,4-triazol-1-yl}methyl)-5-[(3-oxopiperazin-1-yl)carbonyl]-1H-1,2,4-triazol-1-yl}-N-(3,3,3-trifluoropropyl)pyridine-4-carboxamide] | 1650 | 0.9 | 1450
O=C1CN(C(=O)c2nc(Cn3nc(-c4ccc(Cl)cc4)n(C[C@H](O)C(F)(F)F)c3=O)nn2-c2ncccc2C(=O)NCCC(F)(F)F)CCN1 [Example 512, 2-{3-({3-(4-Chlorophenyl)-5-oxo-4-[(2S)-3,3,3-trifluoro-2-hydroxypropyl]-4,5-dihydro-1H-1,2,4-triazol-1-yl}methyl)-5-[(3-oxopiperazin-1-yl)carbonyl]-1H-1,2,4-triazol-1-yl}-N-(3,3,3-trifluoropropyl)pyridine-3-carboxamide] | 3600 | 0.3 | 1250
O=C1CN(C(=O)c2nc(Cn3nc(-c4ccc(Cl)cc4)n(C[C@H](O)C(F)(F)F)c3=O)nn2-c2cnccc2C(=O)NC2CC2)CCN1 [Example 514, 3-{3-({3-(4-Chlorophenyl)-5-oxo-4-[(2S)-3,3,3-trifluoro-2-hydroxypropyl]-4,5-dihydro-1H-1,2,4-triazol-1-yl}methyl)-5-[(3-oxopiperazin-1-yl)carbonyl]-1H-1,2,4-triazol-1-yl}-N-cyclopropylpyridine-4-carboxamide] | 340 | 3.7 | 1250
CC1(NC(=O)c2ccncc2-n2nc(Cn3nc(-c4ccc(Cl)cc4)n(C[C@H](O)C(F)(F)F)c3=O)nc2C(=O)N2CCNC(=O)C2)CC1 [Example 515, 3-{3-({3-(4-Chlorophenyl)-5-oxo-4-[(2S)-3,3,3-trifluoro-2-hydroxypropyl]-4,5-dihydro-1H-1,2,4-triazol-1-yl}methyl)-5-[(3-oxopiperazin-1-yl)carbonyl]-1H-1,2,4-triazol-1-yl}-N-(1-methylcyclopropyl)pyridine-4-carboxamide] | 2000 | 1.1 | 2250
O=C(NCC(F)(F)F)c1ccncc1-n1nc(Cn2nc(-c3ccc(Cl)cc3)n(C[C@H](O)C(F)(F)F)c2=O)nc1C(=O)N1CCS(=O)(=O)CC1 [Example 518, 3-{3-({3-(4-Chlorophenyl)-5-oxo-4-[(2S)-3,3,3-trifluoro-2-hydroxypropyl]-4,5-dihydro-1H-1,2,4-triazol-1-yl}methyl)-5-[(1,1-dioxidothiomorpholin-4-yl)carbonyl]-1H-1,2,4-triazol-1-yl}-N-(2,2,2-trifluoroethyl)pyridine-4-carboxamide] | 955 | 0.5 | 480
O=C(NCCC(F)(F)F)c1ccncc1-n1nc(Cn2nc(-c3ccc(Cl)cc3)n(C[C@H](O)C(F)(F)F)c2=O)nc1C(=O)N1CCS(=O)(=O)CC1 [Example 519, 3-{3-({3-(4-Chlorophenyl)-5-oxo-4-[(2S)-3,3,3-trifluoro-2-hydroxypropyl]-4,5-dihydro-1H-1,2,4-triazol-1-yl}methyl)-5-[(1,1-dioxidothiomorpholin-4-yl)carbonyl]-1H-1,2,4-triazol-1-yl}-N-(3,3,3-trifluoropropyl)pyridine-4-carboxamide] | 1350 | 0.7 | 925

Continued, values first:

IC50 (human V1a receptor) [nM] | ratio IC50 hV2/hV1a (human V1a receptor) | IC50 (human V2 receptor) [nM] | SMILES
26.5 | 18.5 | 490 | O=C(NCCC(F)(F)F)c1cccnc1-n1cnc(Cn2nc(-c3ccc(Cl)cc3)n(C[C@H](O)C(F)(F)F)c2=O)n1 [Example 497, 2-[3-({3-(4-chlorophenyl)-5-oxo-4-[(2S)-3,3,3-trifluoro-2-hydroxypropyl]-4,5-dihydro-1H-1,2,4-triazol-1-yl}methyl)-1H-1,2,4-triazol-1-yl]-N-(3,3,3-trifluoropropyl)pyridine-3-carboxamide]
10.5 | 44.8 | 470 | O=C(NC1CC(F)(F)C1)c1cccnc1-n1cnc(Cn2nc(-c3ccc(Cl)cc3)n(C[C@H](O)C(F)(F)F)c2=O)n1 [Example 498, 2-[3-({3-(4-Chlorophenyl)-5-oxo-4-[(2S)-3,3,3-trifluoro-2-hydroxypropyl]-4,5-dihydro-1H-1,2,4-triazol-1-yl}methyl)-1H-1,2,4-triazol-1-yl]-N-(3,3-difluorocyclobutyl)pyridine-3-carboxamide]
15 | 33.7 | 505 | O=C(NCC1CC1)c1cccnc1-n1cnc(Cn2nc(-c3ccc(Cl)cc3)n(C[C@H](O)C(F)(F)F)c2=O)n1 [Example 499, 2-[3-({3-(4-Chlorophenyl)-5-oxo-4-[(2S)-3,3,3-trifluoro-2-hydroxypropyl]-4,5-dihydro-1H-1,2,4-triazol-1-yl}methyl)-1H-1,2,4-triazol-1-yl]-N-(cyclopropylmethyl)pyridine-3-carboxamide]
6.8 | 44.9 | 305 | O=C(NC1CC1(F)F)c1cccnc1-n1cnc(Cn2nc(-c3ccc(Cl)cc3)n(C[C@H](O)C(F)(F)F)c2=O)n1 (stereo partly drawn) [Example 500, 2-[3-({3-(4-Chlorophenyl)-5-oxo-4-[(2S)-3,3,3-trifluoro-2-hydroxypropyl]-4,5-dihydro-1H-1,2,4-triazol-1-yl}methyl)-1H-1,2,4-triazol-1-yl]-N-(2,2-difluorocyclopropyl)pyridine-3-carboxamide]
30.5 | 17.4 | 530 | COC[C@H]1CCCN1C(=O)c1cccnc1-n1cnc(Cn2nc(-c3ccc(Cl)cc3)n(C[C@H](O)C(F)(F)F)c2=O)n1 [Example 501, 5-(4-Chlorophenyl)-2-{[1-(3-{[(2R)-2-(methoxymethyl)pyrrolidin-1-yl]carbonyl}pyridin-2-yl)-1H-1,2,4-triazol-3-yl]methyl}-4-[(2S)-3,3,3-trifluoro-2-hydroxypropyl]-2,4-dihydro-3H-1,2,4-triazol-3-one]
29.5 | 67.8 | 2000 | COC[C@@H]1CCCN1C(=O)c1cccnc1-n1cnc(Cn2nc(-c3ccc(Cl)cc3)n(C[C@H](O)C(F)(F)F)c2=O)n1 [Example 502, 5-(4-Chlorophenyl)-2-{[1-(3-{[(2S)-2-(methoxymethyl)pyrrolidin-1-yl]carbonyl}pyridin-2-yl)-1H-1,2,4-triazol-3-yl]methyl}-4-[(2S)-3,3,3-trifluoro-2-hydroxypropyl]-2,4-dihydro-3H-1,2,4-triazol-3-one]
1.05 | 52.6 | 55 | CC1(NC(=O)c2cccnc2-n2cnc(Cn3nc(-c4ccc(Cl)cc4)n(C[C@H](O)C(F)(F)F)c3=O)n2)CC1 [Example 505, 2-[3-({3-(4-Chlorophenyl)-5-oxo-4-[(2S)-3,3,3-trifluoro-2-hydroxypropyl]-4,5-dihydro-1H-1,2,4-triazol-1-yl}methyl)-1H-1,2,4-triazol-1-yl]-N-(1-methylcyclopropyl)pyridine-3-carboxamide]
14 | 64.6 | 905 | N#CC1(NC(=O)c2cccnc2-n2cnc(Cn3nc(-c4ccc(Cl)cc4)n(C[C@H](O)C(F)(F)F)c3=O)n2)CC1 [Example 506, 2-[3-({3-(4-Chlorophenyl)-5-oxo-4-[(2S)-3,3,3-trifluoro-2-hydroxypropyl]-4,5-dihydro-1H-1,2,4-triazol-1-yl}methyl)-1H-1,2,4-triazol-1-yl]-N-(1-cyanocyclopropyl)pyridine-3-carboxamide]
2400 | 2.3 | 5450 | O=C1CN(C(=O)c2nc(Cn3nc(-c4ccc(Cl)cc4)n(C[C@H](O)C(F)(F)F)c3=O)nn2-c2ncccc2C(=O)NC2CC2)CCN1 [Example 513, 2-{3-({3-(4-Chlorophenyl)-5-oxo-4-[(2S)-3,3,3-trifluoro-2-hydroxypropyl]-4,5-dihydro-1H-1,2,4-triazol-1-yl}methyl)-5-[(3-oxopiperazin-1-yl)carbonyl]-1H-1,2,4-triazol-1-yl}-N-cyclopropylpyridine-3-carboxamide]
